Key:
[1] = estimated; absolute bioavailability was not able to be determined; cited from earlier work
[2] = Solubility in supercritical CO2 or another supercritical solvent; format: physicochemical
Method: A method for a novel formulation being the object of the present invention, uses the technology of supercritical CO2 based on the solvent power of CO2 which may be modulated at will according to the pressure and temperature conditions which are applied to it. In the supercritical state (more than 74 bars and 31° C.), CO2 has very particular properties. The obtained fluid is characterized by great diffusivity (of the order of that of gases), which gives it good diffusion capability, and a high density which provides it with significant transport and extraction capability.
A supercritical fluid has another advantage over other solvents: its solubility changes depending on whether its temperature or its pressure is varied. Thus it is possible to ensure that it is a solvent for certain substances at a given instant, and no longer for one at the following instant. This facilitates recovery of the substance which was dissolved.
The following step consists of spraying the dissolved active ingredient on an inert support, and then of studying the grain size of the obtained particles as well as the crystalline form of the same particles.
Different parameters were then modified: • changing the inert support (anhydrous lactose replaced with mannitol), • increasing the loading level up to 30% of active ingredient load, • using S modafinil, • a supercritical solvent other than CO2 . […]

[3] = crystalline white powder, cited from earlier work
[4] = cited from earlier work

For NC(=O)C[S+]([O-])C(c1ccccc1)c1ccccc1 (racemic) [Modafinil, 2-[(diphenylmethyl)sulfinyl]acetamide], the bioavailability [1] is given as “about 40%”, the “solubility in CO2” value [2] is given as “acceptable solubility” and the solubility in acetone ([3]; acetone) is given as “partly soluble”. The solubility in methanol ([3]; methanol) was “partly soluble”, the solubility in water ([3]; water) was “practically insoluble” and the elimination half-life ([4]; in humans) was “about 14 hours”.

For NC(=O)C[S@@+]([O-])C(c1ccccc1)c1ccccc1 (single isomer, unassigned) [enantiomer R], the “AUC (area under the curve) compared with the racemic form” value ([4]; after administration) is given as “greater AUC (area under the curve) than the racemic form” and the “variability of plasma levels compared with the racemic form” value ([4]; after administration) is given as “less variability of plasma levels”.

Reference: patent US20150073055A1, “USE OF MODAFINIL IN THE TREATMENT OF COCAINE ADDICTS” (DEBREGEAS ET ASSOCIES PHARMA, priority 2012, published 2015)
